Laboratory results: publication PMC9851200, “Multiparameter phenotypic screening for endogenous TFEB and TFE3 translocation identifies novel chemical series modulating lysosome function” (Autophagy, 2022)
Read-outs that look alike come from different tables or passages of the source.

What was measured:
Assay in all cases: biochemical
Type in all cases: binding
[1] = target: cellular kinases of SH-SY5Y cells (Homo sapiens, UniProt P42345); conditions: 2µM; SH-SY5Y cells; Labeling Site ATP; IQSIAPSLQVITSKQRPR; read-out: KiNativ in-cell binding, % Inhibition, MTOR
Excerpt: (§1) As KINOMEscan is an in vitro assay, and as different cell types have variable kinase expression profiles we sought to determine the kinase binding profile in our SH-SY5Y TFEB-relocalization cell model. […] Bound kinases were pulled down and analyzed by mass spectrometry to determine the in situ kinase binding profile for each compound.

[2] = target: T1, cellular kinases of SH-SY5Y cells (Homo sapiens, UniProt Q9H2G2); conditions: 2µM, SH-SY5Y cells
T1 construct: endogenous in cells; host or cells: SH-SY5Y
Excerpt: as §1

[3] = target: T2, cellular kinases of SH-SY5Y cells (Homo sapiens, UniProt O95835); conditions: 2µM, SH-SY5Y cells, read-out: KiNativ in-cell binding, % Inhibition, LATS1
T2 construct: endogenous in cells; host or cells: SH-SY5Y
Excerpt: as §1

[4] = target: cellular kinases of SH-SY5Y cells (Homo sapiens, UniProt Q96L34); conditions: 2µM, SH-SY5Y cells, read-out: KiNativ in-cell binding, % Inhibition, MARK4
Excerpt: as §1

[5] = target: T3, cellular kinases of SH-SY5Y cells (Homo sapiens, UniProt Q9UBF8); conditions: 2µM, SH-SY5Y cells, Labeling Site ATP, read-out: KiNativ in-cell binding, % Inhibition, PI4KB
T3 construct: endogenous in cells; host or cells: SH-SY5Y
Excerpt: as §1

[6] = target: cellular kinases of SH-SY5Y cells (Homo sapiens, UniProt Q16566); conditions: 2µM, SH-SY5Y cells
Excerpt: as §1

[7] = target: cellular kinases of SH-SY5Y cells (Homo sapiens, UniProt P43405)
Excerpt: as §1

[8] = target: cellular kinases of SH-SY5Y cells (Homo sapiens, UniProt P24941); conditions: 2µM, SH-SY5Y cells
Excerpt: as §1

[9] = target: T4, cellular kinases of SH-SY5Y cells (Homo sapiens, UniProt O96017); conditions: 2µM, SH-SY5Y cells, read-out: KiNativ in-cell binding, % Inhibition, CHEK2/CHK2
T4 construct: endogenous in cells; host or cells: SH-SY5Y
Excerpt: as §1

[10] = target: T5, cellular kinases of SH-SY5Y cells (Homo sapiens, UniProt O15111); conditions: 2µM; SH-SY5Y cells; Labeling Site Lys2; DLKPENIVLQDVGGK; read-out: KiNativ in-cell binding, % Inhibition, CHUK/IKKa
T5 construct: endogenous in cells; host or cells: SH-SY5Y
Excerpt: as §1

[11] = target: cellular kinases of SH-SY5Y cells (Homo sapiens, UniProt Q9NWZ3); conditions: 2µM, SH-SY5Y cells
Excerpt: as §1

[12] = target: cellular kinases of SH-SY5Y cells (Homo sapiens, UniProt Q8NEB9); conditions: 2µM, SH-SY5Y cells
Excerpt: as §1

[13] = target: T6, cellular kinases of SH-SY5Y cells (Homo sapiens, UniProt Q86SG6); conditions: 2µM; SH-SY5Y cells; Labeling Site Lys2; DLKTQNILLDK; read-out: KiNativ in-cell binding, % Inhibition, NEK9/NEK8
T6 construct: endogenous in cells; host or cells: SH-SY5Y
Excerpt: as §1

[14] = target: T7, cellular kinases of SH-SY5Y cells (Homo sapiens, UniProt Q16644); conditions: 2µM; SH-SY5Y cells; Labeling Site ATP Loop; QVLGLGVNGKVLECFHR; read-out: KiNativ in-cell binding, % Inhibition, MAPKAPK3
T7 construct: endogenous in cells; host or cells: SH-SY5Y
Excerpt: as §1

[15] = target: cellular kinases of SH-SY5Y cells (Homo sapiens, UniProt Q99759); conditions: 2µM; SH-SY5Y cells; Labeling Site Lys1; ELASKQVQFDPDSPETSKEVSALECEIQLLK; read-out: KiNativ in-cell binding, % Inhibition, MAP3K3
Excerpt: as §1

[16] = target: T8, cellular kinases of SH-SY5Y cells (Homo sapiens, UniProt Q13188); conditions: 2µM; SH-SY5Y cells; Labeling Site Lys1; ESGQVVAIKQVPVESDLQEIIK; read-out: KiNativ in-cell binding, % Inhibition, STK3/MST2
T8 construct: endogenous in cells; host or cells: SH-SY5Y
Excerpt: as §1

[17] = target: cellular kinases of SH-SY5Y cells (Homo sapiens, UniProt P07948); conditions: 2µM; SH-SY5Y cells; labeling site Lys1; peptide VAVKTLKPGTMSVQAFLEEANLMK
Excerpt: as §1

[18] = target: T9, cellular kinases of SH-SY5Y cells (Homo sapiens, UniProt P16591); conditions: 2µM, SH-SY5Y cells
T9 construct: endogenous in cells; host or cells: SH-SY5Y
Excerpt: as §1

[19] = target: T10, cellular kinases of SH-SY5Y cells (Homo sapiens, UniProt O14733); conditions: 2µM; SH-SY5Y cells; labeling site Lys2; peptide DVKPSNILLDER
T10 construct: endogenous in cells; host or cells: SH-SY5Y
Excerpt: as §1

[20] = target: cellular kinases of SH-SY5Y cells (Homo sapiens, UniProt P11802); conditions: 2µM; SH-SY5Y cells; Labeling Site Lys2; DLKPENILVTSGGTVK; read-out: KiNativ in-cell binding, % Inhibition, CDK4
Excerpt: as §1

cellular kinases of SH-SY5Y cells (Homo sapiens, UniProt Q16566), sequence (Q16566 whole entry): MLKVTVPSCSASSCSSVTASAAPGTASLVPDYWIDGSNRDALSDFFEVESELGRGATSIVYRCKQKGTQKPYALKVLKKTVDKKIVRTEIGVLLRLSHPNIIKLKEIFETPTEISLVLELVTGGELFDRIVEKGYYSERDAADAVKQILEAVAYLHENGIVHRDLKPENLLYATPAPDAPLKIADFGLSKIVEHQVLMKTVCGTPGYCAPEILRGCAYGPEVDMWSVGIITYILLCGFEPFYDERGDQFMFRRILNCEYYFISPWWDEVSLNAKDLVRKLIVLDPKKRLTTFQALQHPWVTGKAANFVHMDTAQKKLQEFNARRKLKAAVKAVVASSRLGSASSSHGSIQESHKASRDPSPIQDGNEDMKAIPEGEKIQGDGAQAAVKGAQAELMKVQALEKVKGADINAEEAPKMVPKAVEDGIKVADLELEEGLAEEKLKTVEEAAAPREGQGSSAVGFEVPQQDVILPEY
cellular kinases of SH-SY5Y cells (Homo sapiens, UniProt Q9NWZ3), sequence (Q9NWZ3 whole entry): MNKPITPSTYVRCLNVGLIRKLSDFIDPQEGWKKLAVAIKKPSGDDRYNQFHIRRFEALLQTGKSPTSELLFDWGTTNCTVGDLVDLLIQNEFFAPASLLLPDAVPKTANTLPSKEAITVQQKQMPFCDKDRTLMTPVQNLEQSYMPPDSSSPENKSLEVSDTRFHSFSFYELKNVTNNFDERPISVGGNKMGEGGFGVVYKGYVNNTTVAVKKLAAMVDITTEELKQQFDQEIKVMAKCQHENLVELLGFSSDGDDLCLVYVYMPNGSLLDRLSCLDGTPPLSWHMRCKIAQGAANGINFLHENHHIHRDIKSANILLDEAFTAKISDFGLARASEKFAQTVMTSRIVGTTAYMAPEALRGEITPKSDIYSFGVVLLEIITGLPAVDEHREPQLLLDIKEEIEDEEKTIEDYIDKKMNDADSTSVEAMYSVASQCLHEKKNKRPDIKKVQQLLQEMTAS
T2 sequence (O95835 whole entry): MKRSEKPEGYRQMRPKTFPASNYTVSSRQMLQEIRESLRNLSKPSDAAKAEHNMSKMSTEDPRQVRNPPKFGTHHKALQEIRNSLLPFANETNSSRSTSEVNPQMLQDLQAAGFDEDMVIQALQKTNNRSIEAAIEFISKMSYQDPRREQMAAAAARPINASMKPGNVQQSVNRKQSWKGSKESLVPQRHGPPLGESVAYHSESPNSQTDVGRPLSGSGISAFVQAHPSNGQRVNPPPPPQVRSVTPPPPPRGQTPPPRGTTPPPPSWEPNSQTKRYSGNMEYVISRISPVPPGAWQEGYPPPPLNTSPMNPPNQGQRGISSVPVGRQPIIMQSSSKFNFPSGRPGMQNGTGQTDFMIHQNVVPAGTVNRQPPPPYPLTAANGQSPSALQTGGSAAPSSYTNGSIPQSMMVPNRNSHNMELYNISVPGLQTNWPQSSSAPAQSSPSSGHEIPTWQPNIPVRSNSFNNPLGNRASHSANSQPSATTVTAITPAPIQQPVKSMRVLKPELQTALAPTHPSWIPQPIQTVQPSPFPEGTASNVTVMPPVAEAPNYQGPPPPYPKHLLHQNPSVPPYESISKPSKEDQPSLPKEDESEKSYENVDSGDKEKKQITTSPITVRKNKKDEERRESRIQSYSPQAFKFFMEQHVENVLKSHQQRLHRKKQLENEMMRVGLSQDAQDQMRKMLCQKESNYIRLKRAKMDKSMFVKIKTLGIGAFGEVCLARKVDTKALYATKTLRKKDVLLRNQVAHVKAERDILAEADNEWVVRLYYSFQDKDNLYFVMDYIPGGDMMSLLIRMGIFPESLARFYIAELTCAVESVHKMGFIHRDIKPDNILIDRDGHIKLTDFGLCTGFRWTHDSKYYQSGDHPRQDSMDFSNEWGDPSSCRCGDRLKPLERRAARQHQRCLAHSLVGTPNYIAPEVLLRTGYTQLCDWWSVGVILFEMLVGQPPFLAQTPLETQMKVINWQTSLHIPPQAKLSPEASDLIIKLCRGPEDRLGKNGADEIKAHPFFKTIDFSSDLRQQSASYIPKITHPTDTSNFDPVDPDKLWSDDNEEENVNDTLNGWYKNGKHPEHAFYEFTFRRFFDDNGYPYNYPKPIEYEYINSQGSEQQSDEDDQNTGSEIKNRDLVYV
cellular kinases of SH-SY5Y cells (Homo sapiens, UniProt Q96L34), sequence (Q96L34 whole entry): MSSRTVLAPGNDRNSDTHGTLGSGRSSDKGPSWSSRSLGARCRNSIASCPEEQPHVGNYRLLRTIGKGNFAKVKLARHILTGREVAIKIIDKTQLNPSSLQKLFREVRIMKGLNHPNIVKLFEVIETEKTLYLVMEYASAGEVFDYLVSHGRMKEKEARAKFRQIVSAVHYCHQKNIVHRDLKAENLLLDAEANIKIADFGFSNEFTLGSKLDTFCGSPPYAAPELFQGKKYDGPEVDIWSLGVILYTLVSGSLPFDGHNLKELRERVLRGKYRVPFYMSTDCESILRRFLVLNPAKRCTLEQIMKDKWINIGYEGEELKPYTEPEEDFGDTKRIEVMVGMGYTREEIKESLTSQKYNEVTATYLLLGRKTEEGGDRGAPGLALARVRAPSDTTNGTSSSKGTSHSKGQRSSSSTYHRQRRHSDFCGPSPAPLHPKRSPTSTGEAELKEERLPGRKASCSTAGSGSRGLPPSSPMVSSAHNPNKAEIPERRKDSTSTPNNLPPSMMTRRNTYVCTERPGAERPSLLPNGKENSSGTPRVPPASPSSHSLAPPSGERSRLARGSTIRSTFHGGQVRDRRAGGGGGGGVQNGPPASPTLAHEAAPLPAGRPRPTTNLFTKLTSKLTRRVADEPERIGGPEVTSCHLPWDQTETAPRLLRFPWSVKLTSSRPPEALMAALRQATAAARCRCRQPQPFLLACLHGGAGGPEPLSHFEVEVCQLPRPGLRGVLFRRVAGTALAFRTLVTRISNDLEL
T4 sequence (O96017 whole entry): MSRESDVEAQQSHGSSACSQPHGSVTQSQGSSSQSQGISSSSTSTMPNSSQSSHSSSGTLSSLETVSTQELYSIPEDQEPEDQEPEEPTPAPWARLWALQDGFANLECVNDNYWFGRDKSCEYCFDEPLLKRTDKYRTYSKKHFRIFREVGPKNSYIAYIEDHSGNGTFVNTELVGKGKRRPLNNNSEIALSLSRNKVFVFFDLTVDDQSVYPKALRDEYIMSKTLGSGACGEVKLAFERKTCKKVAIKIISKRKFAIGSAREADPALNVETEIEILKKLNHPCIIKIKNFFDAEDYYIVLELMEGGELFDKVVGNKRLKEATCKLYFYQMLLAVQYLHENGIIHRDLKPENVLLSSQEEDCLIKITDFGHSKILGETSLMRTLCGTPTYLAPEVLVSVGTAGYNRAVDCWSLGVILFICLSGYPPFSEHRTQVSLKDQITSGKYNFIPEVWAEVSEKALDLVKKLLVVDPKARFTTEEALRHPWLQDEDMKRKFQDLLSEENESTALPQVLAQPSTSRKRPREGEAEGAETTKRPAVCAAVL
T9 sequence (P16591 whole entry): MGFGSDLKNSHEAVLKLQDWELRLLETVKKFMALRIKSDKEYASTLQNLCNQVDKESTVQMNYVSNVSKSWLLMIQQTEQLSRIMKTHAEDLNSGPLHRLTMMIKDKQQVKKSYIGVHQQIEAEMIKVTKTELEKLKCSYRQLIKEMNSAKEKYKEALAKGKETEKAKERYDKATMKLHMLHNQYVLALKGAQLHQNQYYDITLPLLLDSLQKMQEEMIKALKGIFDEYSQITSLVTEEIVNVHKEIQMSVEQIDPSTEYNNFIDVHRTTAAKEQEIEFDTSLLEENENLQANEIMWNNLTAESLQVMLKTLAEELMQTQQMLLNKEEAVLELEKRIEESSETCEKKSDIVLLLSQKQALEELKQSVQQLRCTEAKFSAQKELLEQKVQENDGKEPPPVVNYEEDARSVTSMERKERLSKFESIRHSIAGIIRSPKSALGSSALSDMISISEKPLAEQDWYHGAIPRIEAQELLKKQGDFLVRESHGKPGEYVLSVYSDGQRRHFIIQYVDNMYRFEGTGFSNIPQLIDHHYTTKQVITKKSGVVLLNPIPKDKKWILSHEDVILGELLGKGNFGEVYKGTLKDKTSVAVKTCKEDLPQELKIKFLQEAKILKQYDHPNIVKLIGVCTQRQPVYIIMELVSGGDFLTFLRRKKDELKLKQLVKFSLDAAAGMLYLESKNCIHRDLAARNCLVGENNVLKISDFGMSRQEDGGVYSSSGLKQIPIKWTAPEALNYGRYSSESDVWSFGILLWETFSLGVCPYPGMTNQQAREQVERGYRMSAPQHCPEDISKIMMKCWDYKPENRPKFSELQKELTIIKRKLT
cellular kinases of SH-SY5Y cells (Homo sapiens, UniProt Q8NEB9), sequence (Q8NEB9 whole entry): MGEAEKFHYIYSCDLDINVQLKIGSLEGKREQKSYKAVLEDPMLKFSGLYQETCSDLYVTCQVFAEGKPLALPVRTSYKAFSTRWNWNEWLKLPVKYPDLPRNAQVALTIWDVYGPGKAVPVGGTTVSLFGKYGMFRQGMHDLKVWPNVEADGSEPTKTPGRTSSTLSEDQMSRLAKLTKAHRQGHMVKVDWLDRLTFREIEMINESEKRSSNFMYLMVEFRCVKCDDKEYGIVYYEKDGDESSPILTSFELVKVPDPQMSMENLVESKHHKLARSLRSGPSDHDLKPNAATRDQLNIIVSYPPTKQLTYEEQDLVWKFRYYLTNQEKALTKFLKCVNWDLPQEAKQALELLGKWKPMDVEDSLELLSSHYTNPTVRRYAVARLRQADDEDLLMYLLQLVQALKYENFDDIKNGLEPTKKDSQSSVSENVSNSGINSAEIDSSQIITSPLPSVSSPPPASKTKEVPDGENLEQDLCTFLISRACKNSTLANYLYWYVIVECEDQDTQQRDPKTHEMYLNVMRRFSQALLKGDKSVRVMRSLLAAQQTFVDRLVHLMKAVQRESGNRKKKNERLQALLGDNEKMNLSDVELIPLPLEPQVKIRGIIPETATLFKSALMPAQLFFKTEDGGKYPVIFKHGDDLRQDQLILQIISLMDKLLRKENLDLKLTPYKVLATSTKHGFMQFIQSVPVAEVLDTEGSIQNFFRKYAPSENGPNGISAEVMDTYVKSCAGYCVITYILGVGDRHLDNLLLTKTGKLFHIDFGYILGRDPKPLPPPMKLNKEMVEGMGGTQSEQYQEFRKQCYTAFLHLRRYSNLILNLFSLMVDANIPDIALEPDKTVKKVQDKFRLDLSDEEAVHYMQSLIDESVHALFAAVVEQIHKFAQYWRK

In the case of `Cc1cccc(-c2nc(Nc3ccc4ncsc4c3)c3ccccc3n2)n1` [NK140], the inhibition at 2 µM [1] is reported as 18.4%, the inhibition at 2 µM ([2]; Labeling Site Lys1, AQNKETSVLAAAKVIDTK, read-out: KiNativ in-cell binding, % Inhibition, SLK (SLK OR FYN/SLK)) is reported as 16.4% and the inhibition at 2 µM ([2]; Labeling Site Lys2, DLKAGNILFTLDGDIK, read-out: KiNativ in-cell binding, % Inhibition, SLK) is reported as 26.7%. For the same molecule, the inhibition at 2 µM ([3]; Labeling Site Lys1, ALYATKTLR) was 20.9%, the inhibition at 2 µM ([3]; Labeling Site Lys2, DIKPDNILIDR) was 19.3% and the inhibition at 2 µM ([4]; Labeling Site Lys1, EVAIKIIDKTQLNPSSLQK) was 7.2%. The inhibition at 2 µM ([4]; Labeling Site Lys2, DLKAENLLLDAEANIK) was 11.5%, the inhibition at 2 µM ([5]; LLSVIVKCGDDLRQELLAFQVLK) was 29.7% and the inhibition at 2 µM ([5]; VPHTQAVVLNSKDK) was 32.3%. For the same molecule, the “KiNativ in-cell binding, CaMK4” value ([6]; labeling site Lys1, peptide GTQKPYALKVLK) was -10.9, the “KiNativ in-cell binding, CaMK4” value ([6]; labeling site Lys2, peptide DLKPENLLYATPAPDAPLK) was -28.9 and the “KiNativ in-cell binding, SYK” value [7] was -121.1. The inhibition at 2 µM ([7]; 2µM, SH-SY5Y cells, Labeling Site Activation Loop, AQTHGKWPVK, read-out: KiNativ in-cell binding, % Inhibition, SYK) was 0.443%, the “KiNativ in-cell binding, SYK” value ([7]; 2µM, SH-SY5Y cells, labeling site Activation Loop, peptide ISDFGLSKALR) was -15.0 and the inhibition at 2 µM ([8]; Labeling Site Lys1, LTGEVVALKK, read-out: KiNativ in-cell binding, % Inhibition, CDK2) was 21.6%. For the same molecule, the “KiNativ in-cell binding, CDK2” value ([8]; labeling site Lys2, peptide DLKPQNLLINTEGAIK) was 6.0, the inhibition at 2 µM ([9]; Labeling Site Lys1, VAIKIISK) was 7.7% and the inhibition at 2 µM ([9]; Labeling Site Lys2, DLKPENVLLSSQEEDCLIK) was 15.3%. For the same molecule, the inhibition at 2 µM [10] was -29.6%, the inhibition at 2 µM ([11]; Labeling Site Lys1, GYVNNTTVAVKK, read-out: KiNativ in-cell binding, % Inhibition, IRAK4) was -5.5% and the “KiNativ in-cell binding, IRAK4” value ([11]; labeling site Lys2, peptide DIKSANILLDEAFTAK) was -14.3. For the same molecule, the inhibition at 2 µM ([12]; Labeling Site ATP, TEDGGKYPVIFKHGDDLRQDQLILQIISLMDK, read-out: KiNativ in-cell binding, % Inhibition, PIK3C3) was -69%, the “KiNativ in-cell binding, PIK3C3” value ([12]; labeling site ATP, peptide TEDGGKYPVIFKHGDDLR) was -30.4 and the inhibition at 2 µM [13] was 15.8%. The inhibition at 2 µM [14] was 16.2%, the inhibition at 2 µM [15] was 12.5% and the inhibition at 2 µM [16] was 31.6%. The “KiNativ in-cell binding, LYN” value [17] was -32.9, the “KiNativ in-cell binding, FER” value ([18]; labeling site Activation Loop, peptide QEDGGVYSSSGLKQIPIK) was -42.5 and the “KiNativ in-cell binding, FER” value ([18]; labeling site Lys1, peptide TSVAVKTCKEDLPQELK) was -53.4. The “KiNativ in-cell binding, MAP2K7” value [19] was -84.9 and the inhibition at 2 µM [20] was -19.8%.
